Source: ChEMBL document CHEMBL4665869, “New thiazolopyrimidine as anticancer agents: Synthesis, biological evaluation, DNA binding, molecular modeling and ADMET study” (Bioorg Med Chem Lett, 2020)
Values after ≈ are worked out from the molar mass of the structure shown.

Tests used:
DU-145 = experiment: Growth inhibition of human DU-145 cells at 10 uM relative to control; format: functional; details: read-out: GI
SF-268 = experiment: Growth inhibition of human SF-268 cells at 10 uM relative to control; format: functional; details: read-out: GI
NCI-H460 = experiment: Growth inhibition of human NCI-H460 cells at 10 uM relative to control; format: functional; details: read-out: GI
COLO 205 = experiment: Growth inhibition of human COLO 205 cells at 10 uM relative to control; format: functional; details: read-out: GI
UO-31 = experiment: Growth inhibition of human UO-31 cells at 10 uM relative to control; format: functional; details: read-out: GI
SK-MEL-2 = experiment: Growth inhibition of human SK-MEL-2 cells at 10 uM relative to control; format: functional; details: read-out: GI
SNB-75 = experiment: Growth inhibition of human SNB-75 cells at 10 uM relative to control; format: functional; details: read-out: GI
A549 = experiment: Growth inhibition of human A549 cells at 10 uM relative to control; format: functional; details: read-out: GI
DNA = experiment: Displacement of methyl green from DNA (unknown origin) assessed as DNA intercalation after 24 hrs by colorimetric assay; format: nucleic-acid assay
SF-295 = experiment: Growth inhibition of human SF-295 cells at 10 uM relative to control; format: functional; details: read-out: GI
ACHN = experiment: Growth inhibition of human ACHN cells at 10 uM relative to control; format: functional; details: read-out: GI
SK-OV-3 = experiment: Growth inhibition of human SK-OV-3 cells at 10 uM relative to control; format: functional; details: read-out: GI
SR = experiment: Growth inhibition of human SR cells at 10 uM relative to control; format: functional; details: read-out: GI
OVCAR-4 = experiment: Growth inhibition of human OVCAR-4 cells at 10 uM relative to control; format: functional; details: read-out: GI
K562 = experiment: Growth inhibition of human K562 cells at 10 uM relative to control; format: functional; details: read-out: GI
KM12 = experiment: Growth inhibition of human KM12 cells at 10 uM relative to control; format: functional; details: read-out: GI
SK-MEL-28 = experiment: Growth inhibition of human SK-MEL-28 cells at 10 uM relative to control; format: functional; details: read-out: GI
786-0 = experiment: Growth inhibition of human 786-0 cells at 10 uM relative to control; format: functional; details: read-out: GI
UACC-257 = experiment: Growth inhibition of human UACC-257 cells at 10 uM relative to control; format: functional; details: read-out: GI
MDA-MB-231 = experiment: Growth inhibition of human MDA-MB-231 cells at 10 uM relative to control; format: functional; details: read-out: GI
Hs-578T = experiment: Growth inhibition of human Hs-578T cells at 10 uM relative to control; format: functional; details: read-out: GI
RPMI-8226 = experiment: Growth inhibition of human RPMI-8226 cells at 10 uM relative to control; format: functional; details: read-out: GI
HCC 2998 = experiment: Growth inhibition of human HCC 2998 cells at 10 uM relative to control; format: functional; details: read-out: GI
NCI-H23 = experiment: Growth inhibition of human NCI-H23 cells at 10 uM relative to control; format: functional; details: read-out: GI
MOLT-4 = experiment: Growth inhibition of human MOLT-4 cells at 10 uM relative to control; format: functional; details: read-out: GI
HL-60(TB) = experiment: Growth inhibition of human HL-60(TB) cells at 10 uM relative to control; format: functional; details: read-out: GI
HCT-116 = experiment: Growth inhibition of human HCT-116 cells at 10 uM relative to control; format: functional; details: read-out: GI
SK-MEL-5 = experiment: Growth inhibition of human SK-MEL-5 cells at 10 uM relative to control; format: functional; details: read-out: GI
MDA-MB-435 = experiment: Growth inhibition of human MDA-MB-435 cells at 10 uM relative to control; format: functional; details: read-out: GI
RXF 393 = experiment: Growth inhibition of human RXF 393 cells at 10 uM relative to control; format: functional; details: read-out: GI
NCI-H226 = experiment: Growth inhibition of human NCI-H226 cells at 10 uM relative to control; format: functional; details: read-out: GI
HOP-92 = experiment: Growth inhibition of human HOP-92 cells at 10 uM relative to control; format: functional; details: read-out: GI
BT-549 = experiment: Growth inhibition of human BT-549 cells at 10 uM relative to control; format: functional; details: read-out: GI
HT-29 = experiment: Growth inhibition of human HT-29 cells at 10 uM relative to control; format: functional; details: read-out: GI
LOX IMVI = experiment: Growth inhibition of human LOX IMVI cells at 10 uM relative to control; format: functional; details: read-out: GI
SF-539 = experiment: Growth inhibition of human SF-539 cells at 10 uM relative to control; format: functional; details: read-out: GI
MCF7 = experiment: Growth inhibition of human MCF7 cells at 10 uM relative to control; format: functional; details: read-out: GI
HOP-62 = experiment: Growth inhibition of human HOP-62 cells at 10 uM relative to control; format: functional; details: read-out: GI
IGROV-1 = experiment: Growth inhibition of human IGROV-1 cells at 10 uM relative to control; format: functional; details: read-out: GI
T47D = experiment: Growth inhibition of human T47D cells at 10 uM relative to control; format: functional; details: read-out: GI
OVCAR-8 = experiment: Growth inhibition of human OVCAR-8 cells at 10 uM relative to control; format: functional; details: read-out: GI
NCI/ADR-RES = experiment: Growth inhibition of human NCI/ADR-RES cells at 10 uM relative to control; format: functional; details: read-out: GI
CAKI-1 = experiment: Growth inhibition of human CAKI-1 cells at 10 uM relative to control; format: functional; details: read-out: GI
U-251 = experiment: Growth inhibition of human U-251 cells at 10 uM relative to control; format: functional; details: read-out: GI
Malme-3M = experiment: Growth inhibition of human Malme-3M cells at 10 uM relative to control; format: functional; details: read-out: GI
SW-620 = experiment: Growth inhibition of human SW-620 cells at 10 uM relative to control; format: functional; details: read-out: GI
SN12C = experiment: Growth inhibition of human SN12C cells at 10 uM relative to control; format: functional; details: read-out: GI
MDA-MB-468 = experiment: Growth inhibition of human MDA-MB-468 cells at 10 uM relative to control; format: functional; details: read-out: GI
CCRF-CEM = experiment: Growth inhibition of human CCRF-CEM cells at 10 uM relative to control; format: functional; details: read-out: GI
M14 = experiment: Growth inhibition of human M14 cells at 10 uM relative to control; format: functional; details: read-out: GI
NCI-H322M = experiment: Growth inhibition of human NCI-H322M cells at 10 uM relative to control; format: functional; details: read-out: GI
OVCAR-5 = experiment: Growth inhibition of human OVCAR-5 cells at 10 uM relative to control; format: functional; details: read-out: GI
HCT-15 = experiment: Growth inhibition of human HCT-15 cells at 10 uM relative to control; format: functional; details: read-out: GI
UACC-62 = experiment: Growth inhibition of human UACC-62 cells at 10 uM relative to control; format: functional; details: read-out: GI
PC-3 = experiment: Growth inhibition of human PC-3 cells at 10 uM relative to control; format: functional; details: read-out: GI
TK-10 = experiment: Growth inhibition of human TK-10 cells at 10 uM relative to control; format: functional; details: read-out: GI
A498 = experiment: Growth inhibition of human A498 cells at 10 uM relative to control; format: functional; details: read-out: GI
SNB-19 = experiment: Growth inhibition of human SNB-19 cells at 10 uM relative to control; format: functional; details: read-out: GI
NCI-H522 = experiment: Growth inhibition of human NCI-H522 cells at 10 uM relative to control; format: functional; details: read-out: GI

CC1=CN2C(=NC(/C=C/c3ccc(Cl)cc3)=CC2c2ccc(Cl)cc2)S1 (centres undefined)
inhibition of growth at 10 µM (DU-145): < 10%
inhibition of growth at 10 µM (SF-268): < 10%
inhibition of growth at 10 µM (NCI-H460): < 10%
inhibition of growth at 10 µM (COLO 205): < 10%
inhibition of growth at 10 µM (UO-31): < 10%
inhibition of growth at 10 µM (SK-MEL-2): < 10%
inhibition of growth at 10 µM (SNB-75): 17.3%
inhibition of growth at 10 µM (A549): < 10%
IC50 (DNA): 45.18 µg/mL (≈ 113 µM)
inhibition of growth at 10 µM (SF-295): < 10%
inhibition of growth at 10 µM (ACHN): < 10%
inhibition of growth at 10 µM (SK-OV-3): < 10%
inhibition of growth at 10 µM (SR): < 10%
inhibition of growth at 10 µM (OVCAR-4): < 10%
inhibition of growth at 10 µM (K562): < 10%
inhibition of growth at 10 µM (KM12): < 10%
inhibition of growth at 10 µM (SK-MEL-28): < 10%
inhibition of growth at 10 µM (786-0): < 10%
inhibition of growth at 10 µM (UACC-257): < 10%
inhibition of growth at 10 µM (MDA-MB-231): < 10%
inhibition of growth at 10 µM (Hs-578T): < 10%
inhibition of growth at 10 µM (RPMI-8226): < 10%
inhibition of growth at 10 µM (HCC 2998): < 10%
inhibition of growth at 10 µM (NCI-H23): < 10%
inhibition of growth at 10 µM (MOLT-4): < 10%
inhibition of growth at 10 µM (HL-60(TB)): < 10%
inhibition of growth at 10 µM (HCT-116): < 10%
inhibition of growth at 10 µM (SK-MEL-5): < 10%
inhibition of growth at 10 µM (MDA-MB-435): < 10%
inhibition of growth at 10 µM (RXF 393): < 10%
inhibition of growth at 10 µM (NCI-H226): < 10%
inhibition of growth at 10 µM (HOP-92): < 10%
inhibition of growth at 10 µM (BT-549): < 10%
inhibition of growth at 10 µM (HT-29): < 10%
inhibition of growth at 10 µM (LOX IMVI): < 10%
inhibition of growth at 10 µM (SF-539): < 10%
inhibition of growth at 10 µM (MCF7): < 10%
inhibition of growth at 10 µM (HOP-62): < 10%
inhibition of growth at 10 µM (IGROV-1): < 10%
inhibition of growth at 10 µM (T47D): < 10%
inhibition of growth at 10 µM (OVCAR-8): < 10%
inhibition of growth at 10 µM (NCI/ADR-RES): < 10%
inhibition of growth at 10 µM (CAKI-1): < 10%
inhibition of growth at 10 µM (U-251): < 10%
inhibition of growth at 10 µM (Malme-3M): < 10%
inhibition of growth at 10 µM (SW-620): < 10%
inhibition of growth at 10 µM (SN12C): < 10%
inhibition of growth at 10 µM (MDA-MB-468): < 10%
inhibition of growth at 10 µM (CCRF-CEM): < 10%
inhibition of growth at 10 µM (M14): < 10%
inhibition of growth at 10 µM (NCI-H322M): < 10%
inhibition of growth at 10 µM (OVCAR-5): < 10%
inhibition of growth at 10 µM (HCT-15): < 10%
inhibition of growth at 10 µM (UACC-62): < 10%
inhibition of growth at 10 µM (PC-3): < 10%
inhibition of growth at 10 µM (TK-10): < 10%
inhibition of growth at 10 µM (A498): 12.3%
inhibition of growth at 10 µM (SNB-19): < 10%
inhibition of growth at 10 µM (NCI-H522): < 10%
